These results are taken from patent US10457707B2, “Substituted urea depsipeptide analogs as activators of the CLPP endopeptidase” (priority 2015, dated 2019).

SMILES strings stand for the structures. Values after ≈ are worked out from the molar mass of the structure shown. Read-outs that look alike come from different tables or passages of the source. *1 amine or outer side, *2 acyl side, *3 side chain or, on linkers, in order; H or OH if unused. Where a SMILES comes first, the peptide text is derived from it. Bridges are numbered along the chain shown (N, C = ends). [ ]: non-standard residue; d: D form. The star is where a group is joined. Phe(3,5-F2) = N[C@@H](Cc1cc(F)cc(F)c1)C(=O)O; NH(4-OCF3-phenyl) = FC(F)(F)Oc1ccc(N*)cc1; Morpholine(3S-CO) = O=C(O)[C@@H]1COCCN1; Pro(4S-Me) = C[C@@H]1CN[C@H](C(=O)O)C1; Pro(4R-Me) = C[C@H]1CN[C@H](C(=O)O)C1; NMeaThr = CN[C@H](C(=O)O)[C@H](C)O; NH(4-Et-phenyl) = CCc1ccc(N*)cc1; NH(4-Me-phenyl) = Cc1ccc(N*)cc1; aThr = C[C@H](O)[C@H](N)C(=O)O; CO = O=C([*:1])[*:2] A value given as a limit tells only on which side of the number the result lay.

Type in all cases: cell-based
In data set [1] the test system is Streptococcus pyogenes, ATCC 700294. The data set can be described thus: Minimal inhibitory concentration assay (microbroth dilution). The method, boiled down: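 CLSI broth microdilution: two-fold serial compound dilutions in appropriate broth, inoculated and incubated aerobically overnight at 37° C. MIC read visually as lowest concentration preventing bacterial growth.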
On the technique in general: Dilution methods test growth across graded concentrations, often in twofold steps.

Data set [2] can be described thus: Cytotoxicity assay (CellTiter-Glo cell viability, 72 hours). Conditions: African green monkey. An outline of the steps: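 Vero cells, 5000/well, grown overnight at 37° C, 5% CO2 in DMEM with 10% FBS, then exposed to serial compound dilutions or DMSO for 72 hours. Viability read by CellTiter-Glo luminescence. IC50 from duplicate wells, reported as range over two independent experiments.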
In general terms: ATP-based viability assays read luminescence as a measure of living cells.

For data set [3], the system named is Staphylococcus aureus, ATCC 29213. Kind of data set: Minimal inhibitory concentration assay (microbroth dilution). Conditions: ATCC29213, read-out: Minimal Inhibitory Concentrations S. aureus ATCC 29213. An outline of the steps: (§1)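 Broth microdilution per CLSI M7-A7: two-fold serial dilutions of compound in broth (top final concentration 200 μM) were inoculated with ~10^5 cfu/mL bacteria and incubated aerobically overnight at 37 °C. MIC was read visually as the lowest concentration preventing growth.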

The subject of data set [4] is Bacillus subtilis, ATCC 23857. The description is as above. An outline of the steps: as §1
In data set [5] the test system is Staphylococcus aureus, NRS70. The data set is described as above. An outline of the steps:
as §1

Where [6] appears, read: Streptococcus pyogenes, ATCC700294; read-out: Minimal Inhibitory Concentrations S. pyogenes ATCC 700294.
The mark [7] stands for this setting: Bacillus subtilis, ATCC23857; read-out: Minimal Inhibitory Concentrations B. subtilis ATCC 23857.
Setting [8] is: Staphylococcus aureus, NRS70; read-out: Minimal Inhibitory Concentrations S. aureus NRS70.
Setting [9] is: Streptococcus pyogenes, ATCC700294, read-out: Minimal Inhibitory Concentrations S. pyogenes ATCC 700294.
[10] abbreviates: Vero cells, 72 hours, growth inhibition, read-out: Cytotoxicity IC50.
Where [11] appears, read: Bacillus subtilis, ATCC23857, read-out: Minimal Inhibitory Concentrations B. subtilis ATCC 23857.
[12] abbreviates: Staphylococcus aureus, NRS70, read-out: Minimal Inhibitory Concentrations S. aureus NRS70.

A word on the IC50: it is the concentration at which inhibition is half-maximal. `C[C@@H]1C[C@H]2C(=O)OC[C@H](NC(=O)[C@H](Cc3ccccc3)NC(=O)Nc3ccc4c(c3)OCO4)C(=O)N3CCC[C@H]3C(=O)N3CCCC[C@H]3C(=O)N[C@@H](C)C(=O)N2C1` [Compound 194, (S)-2-(3-(benzo[d][1,3]dioxol-5-yl)ureido)-N-((2R,6S,8aS,14aS,20S,23aS)-2,6-dimethyl-5,8,14,19,23-pentaoxooctadecahydro-1H,5H,14H,19H-pyrido[2,1-i]dipyrrolo[2,1-c:2′,1′-l][1]oxa[4,7,10,13]tetraazacyclohexadecin-20-yl)-3-phenylpropanamide]: the MIC was under 0.2 µM in data set [1] (setting [6]), 1.56 µM (≈ 1.23 µg/mL) in data set [3], 0.39 µM (≈ 0.307 µg/mL) in data set [4] (setting [7]) and 0.39 µM (≈ 0.307 µg/mL) in data set [5] (setting [8]). The IC50 at 72 h in data set [2] was over 100 µM.

Consider `C[C@@H]1C[C@H]2C(=O)OC[C@H](NC(=O)[C@H](Cc3cc(F)cc(F)c3)NC(=O)Nc3ccc4c(c3)OCO4)C(=O)N3CCC[C@H]3C(=O)N3CCCC[C@H]3C(=O)N[C@@H](C)C(=O)N2C1` [Compound 195, (S)-2-(3-(benzo[d][1,3]dioxol-5-yl)ureido)-3-(3,5-difluorophenyl)-N-((2R,6S,8aS,14aS,20S,23aS)-2,6-dimethyl-5,8,14,19,23-pentaoxooctadecahydro-1H,5H,14H,19H-pyrido[2,1-i]dipyrrolo[2,1-c:2′,1′-l][1]oxa[4,7,10,13]tetraazacyclohexadecin-20-yl)propanamide], for which the MIC in data set [1] (setting [6]) is 0.3 µM (≈ 0.247 µg/mL); in data set [3], 0.6 µM (≈ 0.494 µg/mL); in data set [4] (setting [7]), 0.3 µM (≈ 0.247 µg/mL); in data set [5] (setting [8]), 0.6 µM (≈ 0.494 µg/mL). In data set [2], the IC50 at 72 h came to 84.1 ± 8.3 µM.

As to `C[C@H]1C[C@H]2C(=O)O[C@@H](C)[C@H](NC(=O)[C@H](Cc3cc(F)cc(F)c3)NC(=O)Nc3ccc(OC(F)(F)F)cc3)C(=O)N3CCC[C@H]3C(=O)N3CCOC[C@H]3C(=O)N[C@@H](C)C(=O)N2C1` [Compound 201, (S)-3-(3,5-difluorophenyl)-2-(3-(4-(trifluoromethoxy)phenyl)ureido)-N-((6aS,12S,13S,15aS,17S,21S,23aS)-13,17,21-trimethyl-6,11,15,20,23-pentaoxooctadecahydro-6H,11H,15H-[1,4]oxazino[3,4-i]dipyrrolo[2,1-c:2′,1′-l][1]oxa[4,7,10,13]tetraazacyclohexadecin-12-yl)propanamide] ({NH(4-OCF3-phenyl)-CO}-[Phe(3,5-F2)][aThr]P[Morpholine(3S-CO)]A[Pro(4S-Me)]; ester 2-C), the MIC in data set [1] (setting [6]) came out at 0.098 µM (≈ 0.0862 µg/mL); in data set [3], 0.049 µM (≈ 0.0431 µg/mL); in data set [4] (setting [7]) it was 0.024 µM (≈ 0.0211 µg/mL); in data set [5] (setting [8]), 0.024 µM (≈ 0.0211 µg/mL). This compound also yielded an IC50 at 72 h in data set [2] of 26 ± 2.6 µM.

`Cc1ccc(NC(=O)N[C@@H](Cc2cc(F)cc(F)c2)C(=O)N[C@@H]2C(=O)N3CCC[C@H]3C(=O)N(C)[C@@H]([C@H](C)O)C(=O)N[C@@H](C)C(=O)N3C[C@@H](C)C[C@H]3C(=O)O[C@H]2C)cc1` [Compound 202, (S)-3-(3,5-difluorophenyl)-N-((2S,6S,9S,11aS,17S,18S,20aS)-9-((S)-1-hydroxyethyl)-2,6,10,18-tetramethyl-5,8,11,16,20-pentaoxohexadecahydro-1H,5H,16H-dipyrrolo[2,1-c:2′,1′-L][1]oxa[4,7,10,13]tetraazacyclohexadecin-17-yl)-2-(3-(p-tolyl)ureido)propanamide] ({NH(4-Me-phenyl)-CO}-[Phe(3,5-F2)][aThr]P[NMeaThr]A[Pro(4S-Me)]; ester 2-C): the MIC in data set [1] (setting [9]) was determined as 0.391 µM (≈ 0.317 µg/mL); in data set [3], 0.195 µM (≈ 0.158 µg/mL); in data set [4] (setting [11]), 0.195 µM (≈ 0.158 µg/mL); in data set [5] (setting [12]), 0.098 µM (≈ 0.0796 µg/mL). The IC50 at 72 h in data set [2] (setting [10]) was determined as 55.7 ± 3.6 µM.

For `C[C@H]1C[C@H]2C(=O)O[C@@H](C)[C@H](NC(=O)[C@H](Cc3cc(F)cc(F)c3)NC(=O)Nc3ccc(OC(F)(F)F)cc3)C(=O)N3CCC[C@H]3C(=O)N(C)[C@@H]([C@H](C)O)C(=O)N[C@@H](C)C(=O)N2C1` [Compound 203, (S)-3-(3,5-difluorophenyl)-N-((2S,6S,9S,11aS,17S,18S,20aS)-9-((S)-1-hydroxyethyl)-2,6,10,18-tetramethyl-5,8,11,16,20-pentaoxohexadecahydro-1H,5H,16H-dipyrrolo[2,1-c:2′,1′-l][1]oxa[4,7,10,13]tetraazacyclohexadecin-17-yl)-2-(3-(4-(trifluoromethoxy)phenyl)ureido)propanamide] ({NH(4-OCF3-phenyl)-CO}-[Phe(3,5-F2)][aThr]P[NMeaThr]A[Pro(4S-Me)]; ester 2-C), the MIC came to 0.195 µM (≈ 0.172 µg/mL) in data set [1] (setting [6]), 0.098 µM (≈ 0.0864 µg/mL) in data set [3], 0.098 µM (≈ 0.0864 µg/mL) in data set [4] (setting [7]) and 0.049 µM (≈ 0.0432 µg/mL) in data set [5] (setting [8]). In addition, 25.4 ± 1.8 µM corresponded to half-maximal inhibition in data set [2] (IC50 at 72 h).

Take `CCc1ccc(NC(=O)N[C@@H](Cc2cc(F)cc(F)c2)C(=O)N[C@@H]2C(=O)N3CCC[C@H]3C(=O)N(C)[C@@H]([C@H](C)O)C(=O)N[C@@H](C)C(=O)N3C[C@@H](C)C[C@H]3C(=O)O[C@H]2C)cc1` [Compound 204, (S)-3-(3,5-difluorophenyl)-2-(3-(4-ethylphenyl)ureido)-N-((2S,6S,9S,11aS,17S,18S,20aS)-9-((S)-1-hydroxyethyl)-2,6,10,18-tetramethyl-5,8,11,16,20-pentaoxohexadecahydro-1H,5H,16H-dipyrrolo[2,1-c:2′,1′-l][1]oxa[4,7,10,13]tetraazacyclohexadecin-17-yl)propanamide] ({NH(4-Et-phenyl)-CO}-[Phe(3,5-F2)][aThr]P[NMeaThr]A[Pro(4S-Me)]; ester 2-C): the MIC is 0.098 µM (≈ 0.0809 µg/mL) in data set [1] (setting [6]), 0.098 µM (≈ 0.0809 µg/mL) in data set [3], 0.049 µM (≈ 0.0405 µg/mL) in data set [4] (setting [7]) and 0.098 µM (≈ 0.0809 µg/mL) in data set [5] (setting [8]). Half-maximal inhibition in data set [2] (IC50 at 72 h) required 33.8 ± 1.6 µM.

In the case of `C[C@@H]1C[C@H]2C(=O)OC[C@H](NC(=O)[C@H](Cc3ccccc3)NC(=O)Nc3ccc(OC(F)(F)F)cc3)C(=O)N3CCC[C@H]3C(=O)N3CCCC[C@H]3C(=O)N[C@@H](C)C(=O)N2C1` [Compound 205], the MIC was determined as 0.1 µM (≈ 0.0828 µg/mL) in data set [1] (setting [6]), 0.39 µM (≈ 0.323 µg/mL) in data set [3], 0.2 µM (≈ 0.166 µg/mL) in data set [4] (B. subtilis ATCC 23857; read-out: Minimal Inhibitory Concentrations B. subtilis ATCC 23857) and 0.2 µM (≈ 0.166 µg/mL) in data set [5] (setting [8]). For the same compound, the IC50 at 72 h in data set [2] was 88.3 ± 15.2 µM.

For `Cc1ccc(NC(=O)N[C@@H](Cc2ccccc2)C(=O)N[C@H]2COC(=O)[C@@H]3C[C@@H](C)CN3C(=O)[C@H](C)NC(=O)[C@@H]3CCCCN3C(=O)[C@@H]3CCCN3C2=O)cc1C` [Compound 206, (S)—N-((2R,6S,8aS,14aS,20S,23aS)-2,6-dimethyl-5,8,14,19,23-pentaoxooctadecahydro-1H,5H,14H,19H-pyrido[2,1-i]dipyrrolo[2,1-c:2′,1′-l][1]oxa[4,7,10,13]tetraazacyclohexadecin-20-yl)-2-(3-(3,4-dimethylphenyl)ureido)-3-phenylpropanamide], the MIC in data set [1] (setting [9]) is under 0.2 µM; in data set [3] it was 0.39 µM (≈ 0.301 µg/mL); in data set [4] (setting [11]), under 0.2 µM; in data set [5] (setting [12]) it was 0.39 µM (≈ 0.301 µg/mL). The IC50 at 72 h in data set [2] (setting [10]) turned out to be 74 ± 7.7 µM.

Turning to `Cc1ccc(NC(=O)N[C@@H](Cc2cc(F)cc(F)c2)C(=O)N[C@H]2COC(=O)[C@@H]3C[C@@H](C)CN3C(=O)[C@H](C)NC(=O)[C@@H]3CCCCN3C(=O)[C@@H]3CCCN3C2=O)cc1C` [Compound 207, (S)-3-(3,5-difluorophenyl)-N-((2R,6S,8aS,14aS,20S,23aS)-2,6-dimethyl-5,8,14,19,23-pentaoxooctadecahydro-1H,5H,14H,19H-pyrido[2,1-i]dipyrrolo[2,1-c:2′,1′-l][1]oxa[4,7,10,13]tetraazacyclohexadecin-20-yl)-2-(3-(3,4-dimethylphenyl)ureido)propanamide], the MIC in data set [1] (setting [9]), in data set [3], in data set [4] (setting [11]) and in data set [5] (setting [12]) was under 0.2 µM throughout. Moreover, in data set [2] (setting [10]), the IC50 at 72 h was 31.1 ± 5.6 µM.

As to `Cc1ccc(NC(=O)N[C@@H](Cc2cc(F)cc(F)c2)C(=O)N[C@@H]2C(=O)N3CCC[C@H]3C(=O)N3CCOC[C@H]3C(=O)N[C@@H](C)C(=O)N3C[C@H](C)C[C@H]3C(=O)O[C@H]2C)cc1` [Compound 210, (S)-3-(3,5-difluorophenyl)-2-(3-(p-tolyl)ureido)-N-((6aS,12S,13S,15aS,17R,21S,23aS)-13,17,21-trimethyl-6,11,15,20,23-pentaoxooctadecahydro-6H,11H,15H-[1,4]oxazino[3,4-i]dipyrrolo[2,1-c:2′,1′-l][1]oxa[4,7,10,13]tetraazacyclohexadecin-12-yl)propanamide] ({NH(4-Me-phenyl)-CO}-[Phe(3,5-F2)][aThr]P[Morpholine(3S-CO)]A[Pro(4R-Me)]; ester 2-C), the MIC in data set [1] (setting [9]) was determined as 0.02 µM (≈ 0.0162 µg/mL); in data set [3], 0.003 µM (≈ 0.00243 µg/mL); in data set [4] (setting [11]), 0.02 µM (≈ 0.0162 µg/mL); in data set [5] (setting [12]), 0.0002 µM (≈ 0.000162 µg/mL). In addition, in data set [2] (setting [10]), the IC50 at 72 h amounted to 5.82 ± 0.39 µM.
